Results taken from patent publication US9527847B2, “Treatment of lupus, fibrotic conditions, and inflammatory myopathies and other disorders using PI3 kinase inhibitors” (INFINITY PHARMACEUTICALS, INC., priority 2012, dated 2016).
pEC50: −log10 of the molar value.

Key:
[1] = system: Human T-cell proliferation; assay: Human T-cell proliferation; type: cell-based
[2] = system: female C.B-17 SCID mice injected with CD45RBhigh cells; assay: CD4+ Inflammatory Bowel Disease (IBD) model in SCID mice; type: in vivo, mouse
Protocol: In this murine model, female C.B-17 SCID mice are injected intraperitoneally (IP) with CD45RB^high cells, a subset of CD4^+ T cells obtained from normal BALB/c mice, to induce spontaneous chronic inflammation in the large intestine. Gross and histopathologic changes resulting from this treatment resemble those occurring in Crohn's disease and ulcerative colitis in humans.
On study day 0, Balb/C mice were terminated, and spleens were obtained for CD45RB^high cell isolation per the SCID IBD cell separation protocol. SCID mice were weighed and received intraperitoneal (IP) injections of the sorted cells (approx. 4×10^6 cells/ml, 100 μl/mouse injections). On study day 21, mice were weighed and randomized by body weight loss into treatment groups, and daily (QD), oral (PO) dosing was initiated. Dosing continued through study day 41, and mice were terminated on day 42.
For each animal, the entire colon (proximal and distal) was trimmed into 8 equally spaced pieces for processing and embedding. Sections were stained with hemotoxylin and eosin (H&E). For each H&E stained section, submucosal edema was quantitated by measuring the distance from the muscularis mucosa to the internal border of the outer muscle layer in a non tangential area thought to most represent the severity of this change. Mucosal thickness was also measured in a non-tangential area of the section that best represented the overall mucosal thickness. This parameter is indicative of gland elongation and mucosal hyperplasia.
Parameters that were scored using percent involvement included: (1) Colon glandular epithelial loss—this includes crypt epithelial as well as remaining gland epithelial loss; and (2) Colon Erosion—this reflects loss of surface epithelium and generally is associated with mucosal hemorrhage (reflective of the bleeding seen clinically and at necropsy).
The 4 important scored parameters (inflammation, glandular epithelial loss, erosion, hyperplasia) were ultimately summed to arrive at a sum of histopathology scores, which indicates the overall damage and would have a maximum score of 20.
Inflammatory cell infiltrates in the colonic mucosa were evaluated for approximate % of neutrophils in the total infiltrate using the criteria below.
This value was then multiplied by the inflammation score in an attempt to semiquantify relative PMN infiltration across sections and animals.

SMILES: C[C@H](Nc1ncnc2[nH]cnc12)c1cc2cccc(Cl)c2c(=O)n1-c1ccccc1 [Compound 292]
- pEC50 [1]: 8.02
- Colon hyperplasia reduction ([2]; 1 mg/kg PO QD, total colon): 32%
- Mucosal thickness reduction ([2]; 1 mg/kg PO QD, total colon): 31%
- Colon weight reduction toward normal ([2]; 1 mg/kg PO QD, vs vehicle): 34%
- Colon inflammation reduction ([2]; 3 mg/kg PO QD, distal colon): 42%
- Gland loss reduction ([2]; 3 mg/kg PO QD, distal colon): 52%
- Hyperplasia reduction ([2]; 3 mg/kg PO QD, distal colon): 61%
- Mucosal thickness reduction ([2]; 3 mg/kg PO QD, distal colon): 64%
- Neutrophil score reduction ([2]; 3 mg/kg PO QD, distal colon): 66%
- PMN percent reduction ([2]; 3 mg/kg PO QD, distal colon): 56%
- Summed histopathology score reduction ([2]; 3 mg/kg PO QD, distal colon): 52%
- Colon inflammation reduction ([2]; 3 mg/kg PO QD, proximal colon): 19%
- Gland loss reduction ([2]; 3 mg/kg PO QD, proximal colon): 24%
- Hyperplasia reduction ([2]; 3 mg/kg PO QD, proximal colon): 37%
- Mucosal thickness reduction ([2]; 3 mg/kg PO QD, proximal colon): 36%
- Neutrophils score reduction ([2]; 3 mg/kg PO QD, proximal colon): 43%
- PMN percent reduction ([2]; 3 mg/kg PO QD, proximal colon): 39%
- Summed histopathology score reduction ([2]; 3 mg/kg PO QD, proximal colon): 28%
- Colon hyperplasia reduction ([2]; 3 mg/kg PO QD, total colon): 49%
- Colon inflammation reduction ([2]; 3 mg/kg PO QD, total colon): 30%
- Gland loss reduction ([2]; 3 mg/kg PO QD, total colon): 38%
- Mucosal thickness reduction ([2]; 3 mg/kg PO QD, total colon): 51%
- Neutrophil score reduction ([2]; 3 mg/kg PO QD, total colon): 54%
- PMN percent reduction ([2]; 3 mg/kg PO QD, total colon): 47%
- Summed histopathology score reduction ([2]; 3 mg/kg PO QD, total colon): 40%
- Colon weight reduction toward normal ([2]; 3 mg/kg PO QD, vs vehicle): 50%
- Colon inflammation reduction ([2]; 10 mg/kg PO QD, distal colon): 28%
- Colon mucosal thickness reduction ([2]; 10 mg/kg PO QD, distal colon): 46%
- Gland loss reduction ([2]; 10 mg/kg PO QD, distal colon): 39%
- Hyperplasia reduction ([2]; 10 mg/kg PO QD, distal colon): 46%
- Summed histopathology score reduction ([2]; 10 mg/kg PO QD, distal colon): 38%
- Colon edema reduction ([2]; 10 mg/kg PO QD, proximal colon): 68%
- Colon inflammation reduction ([2]; 10 mg/kg PO QD, proximal colon): 17%
- Erosion reduction ([2]; 10 mg/kg PO QD, proximal colon): 94%
- Gland loss reduction ([2]; 10 mg/kg PO QD, proximal colon): 26%
- Hyperplasia reduction ([2]; 10 mg/kg PO QD, proximal colon): 45%
- Mucosal thickness reduction ([2]; 10 mg/kg PO QD, proximal colon): 43%
- Neutrophil score reduction ([2]; 10 mg/kg PO QD, proximal colon): 45%
- PMN percent reduction ([2]; 10 mg/kg PO QD, proximal colon): 37%
- Summed histopathology score reduction ([2]; 10 mg/kg PO QD, proximal colon): 31%
- Absolute body weight ([2]; 10 mg/kg PO QD, significant days 27-31, 35, 39, vs vehicle): significantly (by ANOVA) increased
- Colon edema reduction ([2]; 10 mg/kg PO QD, total colon): 60%
- Colon hyperplasia reduction ([2]; 10 mg/kg PO QD, total colon): 46%
- Colon inflammation reduction ([2]; 10 mg/kg PO QD, total colon): 24%
- Gland loss reduction ([2]; 10 mg/kg PO QD, total colon): 33%
- Mucosal thickness reduction ([2]; 10 mg/kg PO QD, total colon): 45%
- Neutrophil score reduction ([2]; 10 mg/kg PO QD, total colon): 44%
- PMN percent reduction ([2]; 10 mg/kg PO QD, total colon): 37%
- Summed histopathology score reduction ([2]; 10 mg/kg PO QD, total colon): 35%
- Colon weight reduction toward normal ([2]; 10 mg/kg PO QD, vs vehicle): 51%
